How the values were obtained:
[1] = tested on: IL-1β production by BV-2 mouse microglial cells stimulated with LPS; experiment: LPS-induced IL-1β production in BV-2 microglial cells; assay type: cell-based; settings: BV-2 cells, LPS 100 ng/ml, 16 hrs, cell lysates, MSD assay
Description: (§1) BV-2 cells were treated with LPS (100 ng/ml) in the absence or presence of increasing concentrations of MW01-2-151WH or three structurally related analogs (MW01-3-202WH and MW01-3-173WH) for 16 hrs with levels of IL-1β and TNFα in cell lysates measured by the Meso-Scale Discovery electrochemiluminescent detection assay (See, e.g., Example 1, Materials and Methods). Data are the mean+/−SEM of triplicate determinations.
(§2) Biological investigations were done with compounds disclosed herein that were >95% homogenous as determined by HPLC/MS analysis. As part of a hierarchal, cell-based screening protocol, the compounds were screened for their ability to block IL-1β and TNFα production by BV-2 mouse microglial cells stimulated with LPS. The data for MWO1-2-1-151WH and the three structurally related analogs (MW01-3-202WH and MW01-3-173WH,) is shown (See, e.g., FIG. 2). Derivative groups that may be used to modify the compounds of the present invention can be found in U.S. Patent Application No. 20030176437 (herein incorporated by reference in its entirety for all purposes).
(§3) Cell Culture Assays. […] EL-1/3 and TNFa levels in cell lysates were determined by electro-chemiluminescent detection in a Meso-Scale Discovery (MSD) kit, as per the manufacturer's instructions.

[2] = tested on: TNFα production by BV-2 mouse microglial cells stimulated with LPS; experiment: LPS-induced TNFα production in BV-2 microglial cells; assay type: cell-based; settings: BV-2 cells, LPS 100 ng/ml, 16 hrs, cell lysates, MSD assay
Description: as §1, §2, §3

[3] = tested on: Accumulation of the NO metabolite, nitrite, BV-2 microglial cells; experiment: Nitrite (NO metabolite) accumulation in BV-2 microglial cells; assay type: cell-based, mouse; settings: BV-2 cells, concentrations up to 50 μM
Description: FIG. 4 A-C are graphs of the cell-based activity of MW01-2-151WH in BV-2 microglial cells. MW01-2-151WH is a concentration-dependent and selective inhibitor of proinflammatory cytokine production by activated glia. […] (C) Accumulation of the NO metabolite, nitrite, was not inhibited at concentrations up to 50 μM.

[4] = tested on: Aβ-induced neuroinflammation and synaptic damage; experiment: Aβ1-42 ICV infusion mouse model, hippocampal endpoints; assay type: in vivo, C57B1/6 mice; settings: mice infused ICV with Aβ1-42; […] per day i.p. for 14 days
Description: FIG. 3A-F are graphs of MW01-2-151WH suppression of Aβ-induced neuroinflammation and synaptic damage. Hippocampal sections or extracts from vehicle-infused mice (control), Aβ-infused mice injected with solvent, and Aβ-infused mice injected with MW01-2-151 WH were evaluated for neuroinflammation by measurement of the levels of the pro-inflammatory cytokines IL-1β (A), TNFα(B), and S100B (C), and the number of GFAP-positive astrocytes, (D) and F4/80-positive microglia, (E), and evaluated for synaptic damage by analysis of the levels of the postsynaptic density protein 95 (PSD-95) (F). Data are from one of two independent experiments, and are the mean±SEM for 4-5 mice per experimental group.
In vivo Assays. Aβ-42 infusions and treatment of C57B1/6 mice with MW01-2-151WH were performed as previously described. Briefly, oligomeric […] was infused ICV for 28 days with a micro-osmotic pump. At post-operative day 21 and continuing for 14 days thereafter, mice were injected intraperitoneally once daily with either MW01-2-151WH (2.5 mg/kg per day) or solvent control (10% DMSO in saline). At post-operative day 60, mice were perfused and sacrificed, and hippocampal endpoints measured as previously described. […]

liver, lungs, and kidney = experiment: Graded dose, acute toxicity assay (histology of liver, lung, kidney); assay type: in vivo; settings: mice, oral gavage once daily for 3 days, up to 50 mg/kg
Description: Vehicle (panels A,C,E) or MW01-2-151 WH (panels B,D,F) was orally administered (gavage) to mice daily for three days at 50 mg/kg (20-fold greater than a therapeutic dose, described in Materials and Methods).
Graded dose, acute toxicity assays Vehicle (30% DMSO) or MW01-2-151WH (3.1, 12.5 or 50 mg/kg) in 0.5% carboxymethylcellulose was administered by oral gavage once daily for 3 days. On the 4th day, mice were anesthetized with pentobarbital, intubated and the lungs were inflated with an air containing syringe. The mice were perfused through the right ventricle and the lungs, liver and kidneys were then harvested and fixed in 4% paraformaldehyde for histology. Paraffin embedded hematoxylin & eosin stained sections of each organ were prepared by standard techniques.

Row | Compound | inhibition of LPS-induced IL-1β production [1] | inhibition of LPS-induced IL-1β production ([1]; listed as MW01-2-151 WH) | inhibition of LPS-induced TNFα production [2] | inhibition of LPS-induced TNFα production ([2]; listed as MW01-2-151 WH) | Accumulation of the NO metabolite, nitrite [3] | number of F4/80 positive microglia [4] | tissue toxicity (histology of liver, lung, kidney), acute (liver, lungs, and kidney) | tissue toxicity (histology of liver, lung, kidney), acute (liver, lungs, and kidney; listed as MW01-2-151 WH)
1 | 5,6-dihydro-3-(4-(pyrimidin-2-yl)piperazin-1-yl)benzo[h]cinnoline [MW01-2-151WH] | Concentration-dependent inhibition | suppressed | Concentration-dependent inhibition | suppressed | not inhibited | suppressed | No tissue toxicity was observed | no histological evidence of toxicity
2 | 5,6-dihydro-3-(4-phenylpiperazin-1-yl)benzo[h]cinnoline [MW01-3-173WH] | somewhat less suppressive activity |  | somewhat less suppressive activity |  |  |  |  | 
3 | c1ccc(N2CCN(c3cc4c(nn3)-c3ccccc3CC4)CC2)nc1 [MW01-3-202WH, 5,6-dihydro-3-(4-(pyridm-2-yl)piperazin-1-yl)benzo[h]cinnoline] | somewhat less suppressive activity |  | somewhat less suppressive activity |  |  |  |  | 
